Assay results published in patent publication US4100278A, “Novel benzazepines” (Roussel Uclaf, priority 1976, dated 1978).
Where a name gives a salt, the structure may show the parent alone.

Assays:
L-dopa effects = assay: Potentialization of L-dopa effects in mice pretreated with iproniazide; format: in vivo; conditions: Mus musculus, ip; male mice, test product i.p. one hour before L-dopa 100 mg/kg i.p.; iproniazide 75 mg/kg i.p. 18 hours before; read-out: ED50 (dose at which 50% of the L-dopa effects were potentialized)
Description: The administration of L-dopa to mice pretreated with iproniazide 18 hours earlier produces a certain number of symptoms: muscular hypertonicity, hyperactivity, agitation, crying, aggressiveness, salivation and exophthalmia. The intensity of these effects is potentialized by administration of an antidepressive agent one hour before the L-dopa administration.
Male mice received intraperitoneally 75 mg/kg of iproniazide 18 hours before the start of the test and the test products in aqueous solution were administered intraperitoneally in increasing doses. The L-dopa was intraperitoneally administered at a dose of 100 mg/kg one hour later and the symptoms observed 15 and 30 minutes after the L-dopa administration were evaluated on a scale of 0 to 3 for each mouse and the values were totaled for each dose.

[1] = test system: effects of nialamide (inhibitor of monoamine oxidase) - hyperactive motility; assay: Potentialization of effects of IMAO (nialamide), actimetric counting in mice; format: in vivo; design: key to the marks not given beside the values; conditions: 30 minutes after nialamide 100 mg/kg i.p., counts totaled every 30 minutes for 6 hours
[2] = Acute toxicity (LD50) in mice; conditions: mouse, in vivo, ip, intraperitoneal, mortality at 48 hours
Description: The LD50, dose which killed 50% of mice was determined by intraperitoneal administration of the test compounds and the mortality rate was determined of 48 hours.

[3] = test system: effects of 5-hydroxytryptophane (5 HTP); assay: Potentialization of effects of 5 HTP in mice (trembling); format: in vivo; conditions: Mus musculus, test product i.p. one hour before 200 mg/kg 5 HTP i.p., observed every 15 minutes for an hour, read-out: MAD (minimum active dose)
Text: The administration of 5-hydroxytryptophane (5 HTP) to mice pretreated with an antidepressive agent induces in the animals a particular behavoir, namely the appearance of trembling.

[4] = test system: uptake of serotonine (C^14 - 5 HT), brain synaptosoma; assay: Inhibition of uptake of serotonine in vivo (Test No. 2); conditions: Rattus norvegicus, ip; female rats 19 to 21 days old, 10 mg/kg i.p., brain removed after 30 minutes; read-out: % inhibition of uptake of C^14 - 5 HT with respect to the controls (Test No. 2)
Description: The test products were administered intraperitoneally to groups of female rats 19 to 21 days old at doses from 5 to 20 mg/kg. After 30 minutes, the brain was removed and the synaptosoma was prepared and was placed in an incubator in the presence of C^14 - 5 HT as indicated previously. […] The activity is expressed in % inhibition with respect to the controls at a dose of 10 mg/kg and the results are reported in Table V.

[5] = test system: uptake of serotonine (5 HT), purified synaptosoma from whole brain; assay: Inhibition of uptake of serotonine in vitro (Test No. 1); format: biochemical, female rats; conditions: rat brain synaptosoma, 37° C, 5 minutes, C^14 - 5 HT 10^-7 M; read-out: 50% inhibiting concentration (IC 50) of uptake of C^14 - 5 HT (Test No. 1)
Description: The inhibition of uptake of serotonine (5 HT) was measured with purified synaptosoma prepared by starting from the whole brain of female rats 19-21 days old by the technique of Kannengiesser et al [Biochemical Pharmacology, Vol. 22 (1973), p. 73]. The test products at different concentrations were incubated with the preparation at 37° C for 5 minutes in the presence of C^14 - 5 HT at a concentration of 10^-7 M. The 50% inhibiting concentration (IC 50) of the products was graphically determined as the dose that inhibited by 50% the uptake of C^14 - 5 HT in the synaptosma.

| Compound | ED50 (L-dopa effects) [mg/kg] | Potentialization of nialamide for the dose ([1]; 1 mg/kg i.p.) | LD50 at 48 h [2] [mg/kg] | minimal effective dose [3] [mg/kg] | Potentialization of nialamide for the dose ([1]; 5 mg/kg i.p.) | inhibition at 10 mg/kg [4] [%] | IC50 [5] [nM] | Potentialization of nialamide for the dose ([1]; 20 mg/kg i.p.) |
| --- | --- | --- | --- | --- | --- | --- | --- | --- |
| NCC1CCc2ccccc2NC1.O=C(O)/C=C/C(=O)O (centres unmarked) [Example 1, 2,3,4,5-tetrahydro-[1H]-1-benzazepine-3-methanamine fumarate] | 10 | ++ | 300 | 50 |  |  |  |  |
| CNCC1CCc2ccccc2NC1.Cl.Cl (centres unmarked) [Example 2, N-methyl-2,3,4,5-tetrahydro-[1H]-1-benzazepine-3-methanamine dihydrochloride] |  |  | 250 | 10 | +++ | 58 | 1300 |  |
| CNCC1CCc2ccccc2N(C)C1 (centres unmarked) [Example 3, Di-[N, 1-dimethyl-2,3,4,5-tetrahydro-[1H]-1-benzazepine-3-methanamine]-fumarate] | 20 |  | 250 | 50 | ++ | 40 | 1300 |  |
| NC1CCc2ccccc2NC1 (centres unmarked) [Example 4, di-[2,3,4,5-tetrahydro-[1H]-1-benzazepine-3-amine]-fumarate] | 50 |  | 300 | 50 |  |  |  | ++ |
| CNC1CCc2ccccc2N(C)C1 (centres unmarked) [Example 5, di-[N,1-dimethyl-2,3,4,5-tetrahydro-[1H]-1-benzazepine-3-amine]-fumarate] |  |  | 150 | 50 |  |  |  |  |
| CNC1CCc2ccccc2NC1 (centres unmarked) [Example 6, di-[N-methyl-2,3,4,5-tetrahydro-[1H]-1-benzazepine-3-amine] fumarate] |  |  | 250 | 20 |  |  |  |  |
